Laboratory results reported in US20260262643A1, “HERBICIDAL BENZOXAZINES” (FMC CORPORATION, priority 2022, published 2026).

Key:
[1] = test system: blackgrass; experiment: Test A postemergence; assay type: in vivo, Alopecurus myosuroides; conditions: postemergence, 10 days
Procedure, shortened: (§1)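 Loam/sand soil; pre-em directed soil spray at planting, post-em spray at 1–2 leaf (2–10 cm). Compound in non-phytotoxic solvent + surfactant. Greenhouse 10 d; visual injury vs untreated, 0 = no effect, 100 = complete control.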

[2] = test system: foxtail, giant; experiment: Test A preemergence; assay type: in vivo, Setaria faberi; conditions: visual injury after 10 days, 0 to 100 scale, 0 is no effect, 100 is complete control
Procedure, shortened: as §1

[3] = test system: wheat; experiment: Test A preemergence; assay type: in vivo, Triticum aestivum; conditions: visual injury after 10 days, 0 to 100 scale, 0 is no effect, 100 is complete control
Procedure, shortened: as §1

[4] = test system: oat, wild; experiment: Test A preemergence; assay type: in vivo, Avena fatua; conditions: visual injury after 10 days, 0 to 100 scale, 0 is no effect, 100 is complete control
Procedure, shortened: as §1

[5] = test system: ducksalad; experiment: Test B flooded paddy test; assay type: in vivo, Heteranthera limosa; conditions: 250 g ai/ha, Flood, 13 days, 0 to 100 scale (0 no effect, 100 complete control)
Procedure, shortened: (§2)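 Visual scores from 0 (no effect) to 100 (complete kill) were assigned 13 days after treatment by comparison with controls. Seedlings had been treated at two leaves by adding compound to floodwater standing 3 cm deep, kept at that level in the greenhouse.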

[6] = test system: kochia; experiment: Test A postemergence; assay type: in vivo, Bassia scoparia; conditions: postemergence, 10 days
Procedure, shortened: as §1

[7] = test system: kochia; experiment: Test A preemergence; assay type: in vivo, Bassia scoparia; conditions: visual injury after 10 days, 0 to 100 scale, 0 is no effect, 100 is complete control
Procedure, shortened: as §1

[8] = test system: horseweed; experiment: Test A postemergence; assay type: in vivo, Erigeron canadensis; conditions: postemergence, 10 days
Procedure, shortened: as §1

[9] = test system: rice; experiment: Test B flooded paddy test; assay type: in vivo, Oryza sativa; conditions: 250 g ai/ha, Flood, 13 days, 0 to 100 scale (0 no effect, 100 complete control)
Procedure, shortened: as §2

[10] = test system: wheat; experiment: Test A postemergence; assay type: in vivo, Triticum aestivum; conditions: postemergence, 10 days
Procedure, shortened: as §1

[11] = test system: pigweed, palmer; experiment: Test A postemergence; assay type: in vivo, Amaranthus palmeri; conditions: postemergence, 10 days
Procedure, shortened: as §1

[12] = test system: oat, wild; experiment: Test A postemergence; assay type: in vivo, Avena fatua; conditions: postemergence, 10 days
Procedure, shortened: as §1

[13] = test system: barnyardgrass; experiment: Test A preemergence; assay type: in vivo, Echinochloa crusgalli; conditions: visual injury after 10 days, 0 to 100 scale, 0 is no effect, 100 is complete control
Procedure, shortened: as §1

[14] = test system: galium; experiment: Test A postemergence; assay type: in vivo, Galium aparine; conditions: postemergence, 10 days
Procedure, shortened: as §1

[15] = test system: ragweed; experiment: Test A preemergence; assay type: in vivo, Ambrosia artemisiifolia; conditions: visual injury after 10 days, 0 to 100 scale, 0 is no effect, 100 is complete control
Procedure, shortened: as §1

[16] = test system: corn; experiment: Test A preemergence; assay type: in vivo, Zea mays; conditions: visual injury after 10 days, 0 to 100 scale, 0 is no effect, 100 is complete control
Procedure, shortened: as §1

[17] = test system: ryegrass, Italian; experiment: Test A preemergence; assay type: in vivo, Lolium multiflorum; conditions: visual injury after 10 days, 0 to 100 scale, 0 is no effect, 100 is complete control
Procedure, shortened: as §1

[18] = test system: sedge, umbrella; experiment: Test B flooded paddy test; assay type: in vivo, Cyperus difformis; conditions: 250 g ai/ha, Flood, 13 days, 0 to 100 scale (0 no effect, 100 complete control)
Procedure, shortened: as §2

[19] = test system: blackgrass; experiment: Test A preemergence; assay type: in vivo, Alopecurus myosuroides; conditions: visual injury after 10 days, 0 to 100 scale, 0 is no effect, 100 is complete control
Procedure, shortened: as §1

[20] = test system: soybean; experiment: Test A preemergence; assay type: in vivo, Glycine max; conditions: visual injury after 10 days, 0 to 100 scale, 0 is no effect, 100 is complete control
Procedure, shortened: as §1

[21] = test system: ryegrass, Italian; experiment: Test A postemergence; assay type: in vivo, Lolium multiflorum; conditions: postemergence, 10 days
Procedure, shortened: as §1

[22] = test system: pigweed, palmer; experiment: Test A preemergence; assay type: in vivo, Amaranthus palmeri; conditions: visual injury after 10 days, 0 to 100 scale, 0 is no effect, 100 is complete control
Procedure, shortened: as §1

[23] = test system: barnyardgrass; experiment: Test B flooded paddy test; assay type: in vivo, Echinochloa crus-galli; conditions: 250 g ai/ha, Flood, 13 days, 0 to 100 scale (0 no effect, 100 complete control)
Procedure, shortened: as §2

[24] = test system: barnyardgrass; experiment: Test A postemergence; assay type: in vivo, Echinochloa crusgalli; conditions: postemergence, 10 days
Procedure, shortened: as §1

[25] = test system: soybean; experiment: Test A postemergence; assay type: in vivo, Glycine max; conditions: 500 g ai/ha, postemergence, 10 days, visual injury, 0 to 100 scale (0 no effect, 100 complete control)
Procedure, shortened: as §1

[26] = test system: ragweed; experiment: Test A postemergence; assay type: in vivo, Ambrosia artemisiifolia; conditions: postemergence, 10 days
Procedure, shortened: as §1

[27] = test system: corn; experiment: Test A postemergence; assay type: in vivo, Zea mays; conditions: postemergence, 10 days
Procedure, shortened: as §1

[28] = test system: foxtail, giant; experiment: Test A postemergence; assay type: in vivo, Setaria faberi; conditions: postemergence, 10 days
Procedure, shortened: as §1

[29] = 125 g ai/ha, 0 to 100 scale, 0 no effect, 100 complete control
[30] = 500 g ai/ha, visual injury, 0 to 100 scale (0 no effect, 100 complete control)

Compound: CC(C)c1ncn(-c2ccc(OC(F)(F)F)c(C(=O)N3C[C@H](C)Oc4c(Cl)cccc43)c2)n1 [Compound 111]
- Blackgrass plant response rating [1, 29]: 40
- Plant response rating, Blackgrass [1, 30]: 50
- Plant response rating, Foxtail, Giant ([2]; 125 g ai/ha): 100
- Plant response rating, Foxtail, Giant ([2]; 500 g ai/ha): 100
- Plant response rating, Wheat ([3]; 125 g ai/ha): 60
- Plant response rating, Wheat ([3]; 500 g ai/ha): 90
- Plant response rating, Oat, Wild ([4]; 125 g ai/ha): 70
- Plant response rating, Oat, Wild ([4]; 500 g ai/ha): 90
- Plant response rating, Ducksalad [5]: 65
- Kochia plant response rating [6, 29]: 80
- Plant response rating, Kochia [6, 30]: 100
- Plant response rating, Kochia ([7]; 125 g ai/ha): 80
- Plant response rating, Kochia ([7]; 500 g ai/ha): 90
- Horseweed plant response rating [8, 29]: 10
- Plant response rating, Horseweed [8, 30]: 50
- Plant response rating, Rice [9]: 0
- Wheat plant response rating [10, 29]: 10
- Plant response rating, Wheat [10, 30]: 40
- Pigweed, Palmer plant response rating [11, 29]: 70
- Plant response rating, Pigweed, Palmer [11, 30]: 90
- Oat, Wild plant response rating [12, 29]: 40
- Plant response rating, Oat, Wild [12, 30]: 50
- Plant response rating, Barnyardgrass ([13]; 125 g ai/ha): 90
- Plant response rating, Barnyardgrass ([13]; 500 g ai/ha): 100
- Galium plant response rating [14, 29]: 100
- Plant response rating, Galium [14, 30]: 100
- Plant response rating, Ragweed ([15]; 125 g ai/ha): 20
- Plant response rating, Ragweed ([15]; 500 g ai/ha): 90
- Plant response rating, Corn ([16]; 125 g ai/ha): 30
- Plant response rating, Corn ([16]; 500 g ai/ha): 40
- Plant response rating, Ryegrass, Italian ([17]; 125 g ai/ha): 70
- Plant response rating, Ryegrass, Italian ([17]; 500 g ai/ha): 100
- Plant response rating, Sedge, Umbrella [18]: 98
- Plant response rating, Blackgrass ([19]; 125 g ai/ha): 30
- Plant response rating, Blackgrass ([19]; 500 g ai/ha): 70
- Plant response rating, Soybean ([20]; 125 g ai/ha): 70
- Plant response rating, Soybean ([20]; 500 g ai/ha): 100
- Ryegrass, Italian plant response rating [21, 29]: 30
- Plant response rating, Ryegrass, Italian [21, 30]: 60
- Plant response rating, Pigweed, Palmer ([22]; 125 g ai/ha): 90
- Plant response rating, Pigweed, Palmer ([22]; 500 g ai/ha): 100
- Plant response rating, Barnyardgrass [23]: 55
- Barnyardgrass plant response rating [24, 29]: 30
- Plant response rating, Barnyardgrass [24, 30]: 80
- Plant response rating, Soybean [25]: 100
- Ragweed plant response rating [26, 29]: 60
- Plant response rating, Ragweed [26, 30]: 70
- Corn plant response rating [27, 29]: 40
- Plant response rating, Corn [27, 30]: 80
- Foxtail, Giant plant response rating [28, 29]: 90
- Plant response rating, Foxtail, Giant [28, 30]: 90
